Test results from ChEMBL document CHEMBL1909046, “DrugMatrix in vitro pharmacology data”.
Where a SMILES comes first, the peptide text is derived from it. Bridges are numbered along the chain shown (N, C = ends). [ ]: non-standard residue; d: D form. The star is where a group is joined. Threoninol(2S,3R) = C[C@@H](O)[C@H](CO)N*

Key:
[1] = DRUGMATRIX: Glutamate, NMDA, Agonism radioligand binding (ligand: [3H] CGP-39653); assay type: cell membranes, Rattus norvegicus, Wistar, Cerebral cortex, Membrane; settings: Not Active = under 50% inhibition at 10 µM
[2] = target: Platelet-activating factor receptor (Homo sapiens, UniProt P25105); assay type: tissue-based; further: in other assays of this panel Not Active means under 50% inhibition at 10 µM
Androgen receptor [3] = target: T1, Androgen receptor (Rattus norvegicus, UniProt P15207); further: in other assays of this panel Not Active means under 50% inhibition at 10 µM
T1 sequence (P15207 whole entry): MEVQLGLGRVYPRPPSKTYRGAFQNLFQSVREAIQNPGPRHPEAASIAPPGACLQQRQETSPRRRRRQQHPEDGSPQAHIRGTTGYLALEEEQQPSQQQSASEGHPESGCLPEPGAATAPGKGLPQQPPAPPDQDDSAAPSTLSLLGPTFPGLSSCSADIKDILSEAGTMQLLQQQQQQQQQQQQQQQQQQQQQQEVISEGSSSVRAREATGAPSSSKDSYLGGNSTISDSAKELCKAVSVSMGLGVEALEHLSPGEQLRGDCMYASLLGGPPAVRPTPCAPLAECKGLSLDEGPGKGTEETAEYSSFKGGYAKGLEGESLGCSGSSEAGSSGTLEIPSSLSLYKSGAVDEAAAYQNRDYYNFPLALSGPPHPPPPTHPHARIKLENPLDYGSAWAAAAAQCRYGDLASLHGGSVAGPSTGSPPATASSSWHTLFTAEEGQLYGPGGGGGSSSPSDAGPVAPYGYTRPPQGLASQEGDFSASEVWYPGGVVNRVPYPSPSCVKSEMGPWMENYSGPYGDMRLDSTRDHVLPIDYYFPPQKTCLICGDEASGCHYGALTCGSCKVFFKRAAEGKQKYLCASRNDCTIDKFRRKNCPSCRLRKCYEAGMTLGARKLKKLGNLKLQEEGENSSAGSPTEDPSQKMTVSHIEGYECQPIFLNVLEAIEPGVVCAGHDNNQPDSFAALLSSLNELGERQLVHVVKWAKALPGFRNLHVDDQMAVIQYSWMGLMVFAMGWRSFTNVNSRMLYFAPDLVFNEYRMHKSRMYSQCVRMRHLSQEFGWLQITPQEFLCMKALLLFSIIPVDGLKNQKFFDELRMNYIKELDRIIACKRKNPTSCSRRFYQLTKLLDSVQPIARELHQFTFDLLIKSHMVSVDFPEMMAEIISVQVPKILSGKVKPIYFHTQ

Glucocorticoid receptor [4] = target: T2, Glucocorticoid receptor (Homo sapiens, UniProt P04150); assay: biochemical; further: in other assays of this panel Not Active means under 50% inhibition at 10 µM
T2 sequence (P04150 whole entry): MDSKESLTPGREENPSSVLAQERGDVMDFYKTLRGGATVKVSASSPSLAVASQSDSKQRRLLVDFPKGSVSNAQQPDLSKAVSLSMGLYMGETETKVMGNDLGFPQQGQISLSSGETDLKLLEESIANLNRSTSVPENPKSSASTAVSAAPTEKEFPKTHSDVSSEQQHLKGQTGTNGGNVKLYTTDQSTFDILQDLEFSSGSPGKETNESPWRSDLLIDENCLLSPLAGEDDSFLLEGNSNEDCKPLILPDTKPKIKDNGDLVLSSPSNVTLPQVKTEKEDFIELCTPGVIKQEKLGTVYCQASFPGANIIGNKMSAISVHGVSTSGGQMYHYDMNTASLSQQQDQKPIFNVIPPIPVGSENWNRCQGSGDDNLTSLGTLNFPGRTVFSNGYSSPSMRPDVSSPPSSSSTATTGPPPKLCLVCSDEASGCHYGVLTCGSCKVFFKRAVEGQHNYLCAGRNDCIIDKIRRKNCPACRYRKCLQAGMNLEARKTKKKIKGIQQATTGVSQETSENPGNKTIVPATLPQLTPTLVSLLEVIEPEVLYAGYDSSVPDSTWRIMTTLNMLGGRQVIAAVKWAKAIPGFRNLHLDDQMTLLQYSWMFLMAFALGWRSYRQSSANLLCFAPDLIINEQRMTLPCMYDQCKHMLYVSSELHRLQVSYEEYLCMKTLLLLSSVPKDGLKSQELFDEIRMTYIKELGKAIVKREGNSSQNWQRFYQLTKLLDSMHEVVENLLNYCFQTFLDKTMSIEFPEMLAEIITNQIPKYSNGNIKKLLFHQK

Cytochrome P450 2D6 = Cytochrome P450 2D6 (Homo sapiens, UniProt P10635); further: in other assays of this panel Not Active means under 50% inhibition at 10 µM
Glucocorticoid receptor [5] = target: T2, Glucocorticoid receptor; settings: hela s3
Androgen receptor [6] = target: T1, Androgen receptor; remark: listed apart in the source

Chain of Platelet-activating factor receptor (P25105 whole entry): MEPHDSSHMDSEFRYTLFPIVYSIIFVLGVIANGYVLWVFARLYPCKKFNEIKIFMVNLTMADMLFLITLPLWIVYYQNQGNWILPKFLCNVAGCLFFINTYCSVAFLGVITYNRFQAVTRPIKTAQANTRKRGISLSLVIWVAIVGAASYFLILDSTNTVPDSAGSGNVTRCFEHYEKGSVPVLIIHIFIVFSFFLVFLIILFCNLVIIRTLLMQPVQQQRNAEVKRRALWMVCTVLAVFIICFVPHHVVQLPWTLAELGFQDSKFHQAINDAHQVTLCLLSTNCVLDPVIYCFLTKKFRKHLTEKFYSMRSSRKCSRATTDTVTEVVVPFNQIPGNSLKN
Chain of Cytochrome P450 2D6 (P10635 whole entry): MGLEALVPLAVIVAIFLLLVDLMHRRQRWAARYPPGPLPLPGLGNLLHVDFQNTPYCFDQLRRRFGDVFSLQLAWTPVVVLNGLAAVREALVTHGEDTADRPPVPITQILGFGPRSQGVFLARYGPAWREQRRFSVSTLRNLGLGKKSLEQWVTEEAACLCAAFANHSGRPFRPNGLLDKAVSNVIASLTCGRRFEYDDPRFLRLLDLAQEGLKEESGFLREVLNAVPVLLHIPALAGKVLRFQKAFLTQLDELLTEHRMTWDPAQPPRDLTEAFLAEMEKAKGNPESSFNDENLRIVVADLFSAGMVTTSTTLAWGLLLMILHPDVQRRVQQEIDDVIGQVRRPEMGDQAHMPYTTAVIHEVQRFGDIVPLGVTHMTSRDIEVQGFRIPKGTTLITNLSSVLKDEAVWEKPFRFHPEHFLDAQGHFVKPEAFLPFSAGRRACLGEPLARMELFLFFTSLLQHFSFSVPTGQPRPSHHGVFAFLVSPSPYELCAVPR

Row | Molecule | IC50 [1] | Ki [1] | IC50 [2] | IC50 (Androgen receptor [3]) | IC50 (Glucocorticoid receptor [4]) | Ki (Glucocorticoid receptor [4]) | IC50 (Cytochrome P450 2D6) | IC50 (Glucocorticoid receptor [5]) | IC50 (Androgen receptor [6]) | Ki (Androgen receptor [6]) | Ki [2] | Ki (Androgen receptor [3]) | Ki (Glucocorticoid receptor [5])
1 | Cn1c(=O)c2c(ncn2CC2OCCO2)n(C)c1=O [DOXOFYLLINE] | Not Active | Not Active | Not Active | Not Active |  |  |  |  |  |  |  |  | 
2 | CC1(C)O[C@@H]2C[C@H]3[C@@H]4C[C@H](F)C5=CC(=O)C=C[C@]5(C)[C@H]4[C@@H](O)C[C@]3(C)[C@]2(C(=O)CO)O1 [FLUNISOLIDE] | Not Active | Not Active | Not Active |  | 5.33 nM | 2.42 nM |  |  |  |  |  |  | 
3 | CC1(C)O[C@@H]2C[C@H]3[C@@H]4C[C@H](F)C5=CC(=O)C=C[C@]5(C)[C@@]4(F)[C@@H](O)C[C@]3(C)[C@]2(C(=O)CO)O1 [FLUOCINOLONE ACETONIDE] | Not Active | Not Active | Not Active |  | 3.13 nM | 1.42 nM |  |  |  |  |  |  | 
4 | N=C(Nc1ccccc1)Nc1ccccc1 | Not Active | Not Active | Not Active |  |  |  | 3440 nM | Not Active |  |  |  |  | 
5 | O=NN(CCCl)C(=O)NCCCl [CARMUSTINE] | Not Active | Not Active | Not Active | Not Active |  |  |  | Not Active |  |  |  |  | 
6 | C[C@]12CC[C@@H]3c4ccc(OC(=O)c5ccccc5)cc4CC[C@H]3[C@@H]1CC[C@@H]2O [ESTRADIOL BENZOATE] | Not Active | Not Active | Not Active |  | 5070 nM | 2310 nM |  |  | 10 nM | 6.98 nM |  |  | 
7 | Cc1cc(=O)n(-c2ccccc2)n1C [ANTIPYRINE] | Not Active | Not Active | Not Active | Not Active |  |  |  |  |  |  |  |  | 
8 | CC1(C)O[C@@H]2C[C@H]3[C@@H]4C[C@H](F)C5=CC(=O)CC[C@]5(C)[C@H]4[C@@H](O)C[C@]3(C)[C@]2(C(=O)CO)O1 [FLURANDRENOLIDE] | Not Active | Not Active | Not Active |  | 4.45 nM | 2.02 nM |  |  |  |  |  |  | 
9 | CC(=O)OCC(=O)[C@@]1(O)CC[C@H]2[C@@H]3CCC4=CC(=O)CC[C@]4(C)[C@H]3C(=O)C[C@@]21C [CORTISONE ACETATE] | Not Active | Not Active | Not Active | Not Active |  |  |  |  |  |  |  |  | 
10 | CCN1CC(CCN2CCOCC2)C(c2ccccc2)(c2ccccc2)C1=O (stereo not drawn) [DOXAPRAM] | Not Active | Not Active | Not Active |  |  |  | 100 nM | Not Active |  |  |  |  | 
11 | OC(CCN1CCCCC1)(c1ccccc1)C1CCCCC1 (stereo not drawn) [TRIHEXYPHENIDYL] | Not Active | Not Active | Not Active |  |  |  | 2450 nM |  |  |  |  |  | 
12 | CC(C)(Oc1ccc(C2CCCc3ccccc32)cc1)C(=O)O (stereo not drawn) [NAFENOPIN] | Not Active | Not Active | Not Active | Not Active |  |  |  | Not Active |  |  |  |  | 
13 | Oc1ccc(OCc2ccccc2)cc1 [MONOBENZONE] | Not Active | Not Active | Not Active | Not Active |  |  |  | Not Active |  |  |  |  | 
14 | O=C1CC2(CCCC2)CC(=O)N1CCCCN1CCN(c2ncccn2)CC1 [BUSPIRONE] | Not Active | Not Active | Not Active | Not Active |  |  |  |  |  |  |  |  | 
15 | CN(C)c1ccc(C(=C2C=CC(=[N+](C)C)C=C2)c2ccc(N(C)C)cc2)cc1.[Cl-] [GENTIAN VIOLET] | Not Active | Not Active | Not Active |  |  |  | 824 nM | Not Active | 5570 nM | 3710 nM |  |  | 
16 | CC(=O)Nc1ccc(O)cc1 [ACETAMINOPHEN] | Not Active | Not Active | Not Active | Not Active |  |  |  |  |  |  |  |  | 

Row | Molecule | IC50 [1] | Ki [1] | IC50 [2] | IC50 (Androgen receptor [3]) | IC50 (Glucocorticoid receptor [4]) | Ki (Glucocorticoid receptor [4]) | IC50 (Cytochrome P450 2D6) | IC50 (Glucocorticoid receptor [5]) | IC50 (Androgen receptor [6]) | Ki (Androgen receptor [6]) | Ki [2] | Ki (Androgen receptor [3]) | Ki (Glucocorticoid receptor [5])
17 | CCCCN1CCCCC1C(=O)Nc1c(C)cccc1C.Cl (stereo not drawn) [BUPIVACAINE HYDROCHLORIDE] | Not Active | Not Active | Not Active | Not Active |  |  | 400 nM |  |  |  |  |  | 
18 | CADMIUM DICHLORIDE | Not Active | Not Active | Not Active | Not Active |  |  |  | Not Active |  |  | Not Active | Not Active | Not Active
19 | COc1cccc2c1C(=O)c1c(O)c3c(c(O)c1C2=O)C[C@@](O)(C(=O)CO)C[C@@H]3O[C@H]1C[C@H](N)[C@H](O)[C@H](C)O1 [DOXORUBICIN] | Not Active | Not Active | Not Active |  |  |  |  | Not Active |  |  |  |  | 
20 | O=C(O)Cc1ccccc1Nc1c(Cl)cccc1Cl [DICLOFENAC] | Not Active | Not Active | Not Active | Not Active |  |  |  |  |  |  |  |  | 
21 | CC(C)[C@H]1CC[C@H](C(=O)N[C@H](Cc2ccccc2)C(=O)O)CC1 [NATEGLINIDE] | Not Active | Not Active | Not Active |  |  |  |  | Not Active |  |  |  |  | 
22 | CCn1cc(C(=O)O)c(=O)c2cc(F)c(N3CCN(C)CC3)cc21 [PEFLOXACIN] | Not Active | Not Active | Not Active |  |  |  |  | Not Active |  |  |  |  | 
23 | COc1ccc2c(c1)c(CC(=O)O)c(C)n2C(=O)c1ccc(Cl)cc1 [INDOMETHACIN] | Not Active | Not Active | Not Active | Not Active |  |  |  | Not Active |  |  |  |  | 
24 | C[C@H]1O[C@@H](O[C@H]2[C@@H](O)C[C@H](O[C@H]3[C@@H](O)C[C@H](O[C@H]4CC[C@@]5(C)[C@H](CC[C@@H]6[C@@H]5CC[C@]5(C)[C@@H](C7=CC(=O)OC7)CC[C@]65O)C4)O[C@@H]3C)O[C@@H]2C)C[C@H](O)[C@@H]1O [DIGITOXIN] | Not Active | Not Active | Not Active | Not Active |  |  |  | Not Active |  |  |  |  | 
25 | CC1=C(C(=O)O)N2C(=O)[C@@H](NC(=O)[C@H](N)c3ccccc3)[C@H]2SC1 [CEPHALEXIN ANHYDROUS] | Not Active | Not Active | Not Active |  |  |  |  | Not Active |  |  |  |  | 
26 | CN(C)/N=N/c1[nH]cnc1C(N)=O [DACARBAZINE] | Not Active | Not Active | Not Active |  |  |  |  | Not Active |  |  |  |  | 
27 | COc1ccc2c(c1)[C@]13CCCC[C@@H]1[C@H](C2)N(C)CC3 [DEXTROMETHORPHAN] | Not Active | Not Active | Not Active |  |  |  |  | Not Active |  |  |  |  | 
28 | C=C1CC[C@H](O)C/C1=C/C=C1\CCC[C@]2(C)[C@@H]([C@H](C)CCCC(C)C)CC[C@@H]12 [CHOLECALCIFEROL] | Not Active | Not Active | Not Active |  |  |  |  | Not Active |  |  |  |  | 
29 | COc1cc2c(c3oc(=O)c4c(c13)CCC4=O)[C@@H]1C=CO[C@@H]1O2 [AFLATOXIN] | Not Active | Not Active | Not Active | Not Active |  |  |  | Not Active |  |  | Not Active | Not Active | Not Active
30 | CC(C)Cc1ccc(C(C)C(=O)O)cc1 (stereo not drawn) [IBUPROFEN] | Not Active | Not Active | Not Active |  |  |  |  | Not Active |  |  |  |  | 
31 | CC(C)(C(=O)c1cccnc1)c1cccnc1 [METYRAPONE] | Not Active | Not Active | Not Active |  |  |  |  | Not Active |  |  |  |  | 
32 | C[C@@H](O)[C@H](CO)NC(=O)[C@@H]1CSSC[C@H](NC(=O)[C@H](N)Cc2ccccc2)C(=O)N[C@@H](Cc2ccccc2)C(=O)N[C@H](Cc2c[nH]c3ccccc23)C(=O)N[C@@H](CCCCN)C(=O)N[C@@H]([C@@H](C)O)C(=O)N1 (H-[dF]CF[dW]KTC-{Threoninol(2S,3R)}; disulfide 2-7) | Not Active | Not Active | Not Active |  |  |  |  | Not Active |  |  |  |  | 
